# In publication PMC12307812 (Nature Communications, 2025):
# Biological target: T1, Recombinant Human TMPRSS2 (Homo sapiens, UniProt O15393)
# T1 construct: human TMPRSS2 residues 106492, N-terminal 6x His-tag; 6x His-tag (N); purchased Cusabio CSB-YP023924HU; host or cells: yeast
# Assay: TMPRSS2 biochemical assay (Boc-Gln-Ala-Arg-AMC fluorogenic substrate)
# Conditions: first round of screening on the NCATS in-house library (docking score selection); read-out: IC50
# Experimental: Inhibitors of TMPRSS2 were tested using a high throughput activity assay. […] TMPRSS2 (5 µl, 0.018 mg/ml) in assay buffer (50 mM Tris pH 8, 150 mM NaCl, 0.01% Tween20) was dispensed to that, using a BioRAPTR (Beckman Coulter), for a total assay volume of 5 µl.
# After incubation at room temperature for 1 h, fluorescence was measured. […] Raw plate reads for each titration point were normalized relative to a positive control containing no enzyme (0% activity, full inhibition) and a negative control containing DMSO-only wells (100% activity, basal activity). Data normalization was performed using GraphPad Prism (GraphPad Software, San Diego, CA).
# We employed the curve fitting algorithm available in the SciPy package (version 1.10.1)[61] to derive the Hill slope and the IC50 value, along with their corresponding error estimates.
# T1 sequence (O15393 106-492 limits assumed): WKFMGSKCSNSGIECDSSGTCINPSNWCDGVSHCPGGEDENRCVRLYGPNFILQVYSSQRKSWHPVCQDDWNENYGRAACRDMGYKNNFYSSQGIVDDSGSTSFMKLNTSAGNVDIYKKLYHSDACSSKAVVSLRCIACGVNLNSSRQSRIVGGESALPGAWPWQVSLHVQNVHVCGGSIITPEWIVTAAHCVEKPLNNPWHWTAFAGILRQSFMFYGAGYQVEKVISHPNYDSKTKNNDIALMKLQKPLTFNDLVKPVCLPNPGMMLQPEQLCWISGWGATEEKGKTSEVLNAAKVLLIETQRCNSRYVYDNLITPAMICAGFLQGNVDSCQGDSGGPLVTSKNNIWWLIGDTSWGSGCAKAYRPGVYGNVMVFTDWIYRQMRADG
row,Structure (SMILES),IC50
1,CCOC(=O)c1c(-c2ccc(OC)cc2)oc2ccc(OCc3ccc(F)cc3F)cc12 [NCGC00099773-01],31.6 µM
2,COC(=O)c1ccc(Nc2nc(-c3ccc(C)cc3)nc3ccccc23)cc1 [NCGC00099825-01],17.8 µM
3,COC(=O)c1ccc(OC)c(Cn2c(=O)n(-c3cccc(Cl)c3)c(=O)c3c2c2cc(C)ccc2n3C)c1 [NCGC00104930-01],31.6 µM
4,OCCn1cc(-c2cnc3nnn(Cc4ccc5ncccc5c4)c3n2)cn1 [NCGC00263161-11],19.9 µM
5,O=C(OCC(O)CO)c1ccccc1Nc1ccnc2c(C(F)(F)F)cccc12 (centres unmarked) [NCGC00249912-01],31.6 µM
6,CC(=O)Nc1cccc(-c2nc(-c3c(C)noc3C)cc3c2cc(-c2ccccc2)n3C)c1 [NCGC00417192-01],8.91 µM
7,CCOc1ccc(-n2nc(CO)c(C(=O)NCC(c3ccccc3)c3ccccc3)n2)cc1 [NCGC00117127-01],22.4 µM
8,Fc1cc(F)cc(Cc2nc3nccc(-c4cc5ccccc5o4)n3n2)c1 [NCGC00424555-01],12.6 µM
9,CCCCC(=O)Oc1ccc2oc(-c3ccc(OC)cc3)cc(=O)c2c1 [NCGC00100604-01],12.6 µM
10,CC(=O)Nc1cccc(-c2cc3c(ccn3C)c(C(=O)NCc3c(C)cc(C)[nH]c3=O)n2)c1 [NCGC00411690-01],17.8 µM
11,COC(=O)c1ccccc1NC(=O)CCCS(=O)(=O)c1nc(-c2ccccc2OC)cc(C(F)(F)F)n1 [NCGC00103995-01],14.1 µM
12,Cc1cc(C(=O)Nc2cc(Oc3ccc4nc(NC(=O)C5CC5)cn4n3)ccc2C)n(C)n1 [NCGC00485933-01],31.6 µM
13,CC(C)c1ccc2oc(-c3ccc(NC(=O)c4cc5ccccc5o4)cc3)nc2c1 [NCGC00099237-01],22.4 µM
14,Cn1nnc(-c2ccc(-c3ccc(N4C[C@H](COP(=O)(O)O)OC4=O)cc3F)cn2)n1 [NCGC00482851-02],35.5 µM
15,COc1ccc(-c2cc(C(=O)Oc3ccc(C)c(C)c3)c3ccccc3n2)cc1 [NCGC00099485-01],15.8 µM
16,Cc1cccc(-n2ncc3c(Nc4ccc(Oc5ccc(Cl)cc5)cc4)ncnc32)c1 [NCGC00138820-01],12.6 µM
17,O=C(NCc1ccc(-c2cnc3c(Oc4ccccc4)nccn23)cc1)c1ccn[nH]1 [NCGC00413991-01],35.5 µM
18,Cc1cc(C)c(CNC(=O)c2nc(-c3cccc(C(F)(F)F)c3)cc3[nH]ccc23)c(=O)[nH]1 [NCGC00411596-01],8.91 µM
19,COC(=O)CNC(=O)c1nc(-c2cccc(C(F)(F)F)c2)c2ccccn12 [NCGC00476320-01],15.8 µM
20,COC(=O)Cc1c(C)c2ccc3c(c2oc1=O)CN(Cc1ccc(C)cc1)CO3 [NCGC00116348-01],15.8 µM
21,CCOC(=O)c1cccc(Nc2ccc3cc(S(=O)(=O)N4CCCCC4)ccc3n2)c1 [NCGC00127764-01],14.1 µM
22,Nc1n[nH]c(CNc2cc(-c3ccc(F)cc3)nc3ccnn23)n1 [NCGC00434595-01],19.9 µM
23,Cn1ccc2c(C(=O)NCCc3cnc[nH]3)nc(-c3cnn(Cc4ccccc4)c3)cc21 [NCGC00411713-01],35.5 µM

# Same assay, conditions: hits from NCATS in-house library screening; read-out: IC50, TMPRSS2 biochemical assay
row,Structure (SMILES),IC50
1,CCOC(=O)CCN(C(=O)c1ccc2c(c1)nc(CNc1ccc(C(=N)N)cc1)n2C)c1ccccn1 [dabigatran ethyl ester],2.24 µM

# Same assay, conditions: second round of screening on the NCATS in-house library (dynamic h-score selection); read-out: IC50
row,Structure (SMILES),IC50
1,COc1cccc(COC(=O)c2ccc(-c3nnn(Cc4ccccc4)n3)cc2)c1 [NCGC00102929-01],17.8 µM
2,Cc1cc(-c2cc3c(nc2-c2ccccc2)nc(C(=O)NCCN(C)C)n3C)ccn1 [NCGC00417822-01],19.9 µM
3,CC(=O)Nc1ccc(CN2C(=O)OC3(CCN(C(=O)c4cccc(C#N)c4)CC3)C2(C)c2ccccc2)cc1 (centres unmarked) [NCGC00415676-01],31.6 µM
4,Nc1nn(-c2ccccc2)nc1C(=O)OCc1ccccc1 [NCGC00102837-01],17.8 µM
5,Nc1nn(-c2ccccc2)nc1C(=O)OCc1ccccc1Br [NCGC00102940-01],17.8 µM
6,Cc1ccc(C(=O)Oc2ccc(C(O)CNC(C)(C)C)cc2OC(=O)c2ccc(C)cc2)cc1 (centres unmarked) [NCGC00253593-01],14.1 µM
7,O=C(OCC1CCCO1)c1ccc2c(c1)N(Cc1ccc(F)cc1)C(=O)c1ccccc1S2(=O)=O (centres unmarked) [NCGC00127812-01],15.8 µM

# Tested on: TMPRSS2
# Assay: not given
# Design: method as in earlier work
# Conditions: top 50 compounds by AUC, Figure 2 source data; cited from earlier work
row,Structure (SMILES),max response (%)
1,N=C(N)c1ccc(OCCCOc2ccc(C(=N)N)cc2Br)c(Br)c1 [NCGC00189076-01],-77.315%
2,Cl.NCCNC(=O)c1ccc(Cl)cn1 [NCGC00167737-02],-9.8855%
3,CC(=O)Oc1cccc(O)c1 [NCGC00095054-05],-8.588%
4,CN(C/C=C/c1ccccc1)Cc1cccc2ccccc12.Cl [NCGC00179332-03],-15.3589%
5,CC=CC1C(C(=O)OCc2c(F)c(F)c(COC)c(F)c2F)C1(C)C (centres unmarked) [NCGC00319021-01],-16.0283%
6,C[C@]12CCC(=O)C=C1CC[C@@H]1[C@@H]2[C@@H](O)C[C@@]2(C)[C@H]1CC[C@]2(O)C(=O)CO [NCGC00022848-17],-0.7252%
7,CN(C)C(=O)COC(=O)Cc1ccc(OC(=O)c2ccc(N=C(N)N)cc2)cc1.CS(=O)(=O)O [NCGC00167526-02],-95.3053%
8,S=P(N1CC1)(N1CC1)N1CC1 [NCGC00095042-09],-29.4275%
9,COc1ccc(CN2CCNCC2)c(OC)c1OC [NCGC00016697-04],-13.9313%
10,CCCCc1cc2ccccc2c(OCCN(C)C)n1 [NCGC00016618-04],-11.3359%
11,CCOC(=O)c1ccc(OC(=O)CCCCCN=C(N)N)cc1.CS(=O)(=O)O [NCGC00025297-04],-83.626%
12,CC12CCC(CC1=O)C2(C)C (centres unmarked) [NCGC00090730-03],-1.87%
13,O=c1c(O)c(-c2ccc(O)c(O)c2)oc2cc(O)cc(O)c12 [NCGC00015870-27],-35.5344%
14,CC(=O)Oc1cc(C(C)C)c(OCCN(C)C)cc1C [NCGC00015678-10],-9.504%
15,O=C(O)CCNC(=O)c1ccc(N=Nc2ccc(O)c(C(=O)O)c2)cc1 [NCGC00164634-02],-22.1756%
16,CN(C(=O)C(Cl)Cl)c1ccc(OC(=O)c2ccco2)cc1 [NCGC00016637-10],-56.9847%
17,N=C(N)c1ccc2cc(OC(=O)c3ccc(N=C(N)N)cc3)ccc2c1 [NCGC00160398-05],-96.6794%
18,N=C(N)c1ccc(/C=C/c2ccc(C(=N)N)cc2O)cc1 [NCGC00166289-02],-82.5214%
19,CCC(=O)c1ccc2c(c1)N(CCCN(C)C)c1ccccc1S2.Cl [NCGC00015838-06],-16.7557%

row,Structure (SMILES),max response (%)
1,N=C(N)c1ccc(OCCCCCOc2ccc(C(=N)N)cc2)cc1 [NCGC00179034-07],-64.313%
2,CCCCCCCCCCCCCCCC[n+]1ccccc1.[Br-] [NCGC00091023-06],-21.1069%
3,CC(N)C12CC3CC(CC(C3)C1)C2.Cl (centres unmarked) [NCGC00159491-04],-13.9313%
4,CC(C(=O)O)c1ccc(C(=O)c2cccs2)cc1 (centres unmarked) [NCGC00094916-06],-15.5344%
5,CC[C@H](C)[C@H]1O[C@]2(C=C[C@@H]1C)C[C@@H]1C[C@@H](C/C=C(\C)[C@@H](O[C@H]3C[C@H](OC)[C@@H](O[C@H]4C[C@H](OC)[C@@H](O)[C@H](C)O4)[C@H](C)O3)[C@@H](C)/C=C/C=C3\CO[C@@H]4[C@H](O)C(C)=C[C@@H](C(=O)O1)[C@]34O)O2 [NCGC00168290-05],-26.1435%
6,CN[C@H]1C[C@@H](N)[C@H](O)[C@@H](O[C@@H]2O[C@H](CO)[C@H](O)[C@@H]3OC4(O[C@H]23)O[C@H]([C@@H](N)CO)[C@H](O)[C@H](O)[C@H]4O)[C@@H]1O (some centres unmarked) [NCGC00188433-02],-14.1688%
7,Nc1ncnc2nc[nH]c12 [NCGC00094856-05],-3.511%
8,Cl.NCC1CCC(C(=O)Oc2ccc(CCC(=O)O)cc2)CC1 (centres unmarked) [NCGC00164584-03],-89.9618%
9,COc1cc(C)c(Cc2cnc(N)nc2N)cc1OC [NCGC00167523-03],-8.206%
10,O=[N+]([O-])C(Br)(CO)CO [NCGC00164057-03],-6.336%
11,CC(CCc1ccccc1)NC(C)C(O)c1ccc(O)cc1 (centres unmarked) [NCGC00015716-09],-20.1145%
12,C#C[C@]1(O)CC[C@H]2[C@@H]3CCC4=CC(=O)CCC4=C3C=C[C@@]21CC [NCGC00167457-02],-24.7304%
13,Cc1ccc(S(=O)(=O)NC(=O)NN2CC3CCCC3C2)cc1 (centres unmarked) [NCGC00095107-09],-9.733%
14,COc1cc(N)c(Cl)cc1C(=O)NC1CCN(Cc2ccccc2)CC1 [NCGC00016951-05],-0.1908%
15,C=CCN1CC[C@]23CCCC[C@H]2[C@H]1Cc1ccc(O)cc13 [NCGC00162247-06],-23.7786%
16,C=C1CC[C@H](O)C/C1=C\C=C1/CCC[C@]2(C)[C@@H]([C@H](C)/C=C/[C@H](C)C(C)C)CC[C@@H]12 [NCGC00166307-05],-20.0382%
17,C=C1C(=O)O[C@@H]2[C@H]3O[C@]3(C)CC/C=C(/C)CC[C@@H]12 [NCGC00024683-23],-10.5725%
18,C=CC[C@@H]1/C=C(\C)C[C@H](C)C[C@H](OC)[C@H]2O[C@@](O)(C(=O)C(=O)N3CCCC[C@H]3C(=O)O[C@H](/C(C)=C/[C@@H]3CC[C@@H](O)[C@H](OC)C3)[C@H](C)[C@@H](O)CC1=O)[C@H](C)C[C@@H]2OC [NCGC00163470-27],-28.9699%
